Assay results taken from patent EP0411183A1, “Ascorbic acid derivative” (NIPPON HYPOX LABORATORIES INCORPORATED, priority 1989, dated 1991).

Experiments:
[1] = Antioxidant action examined by using stable radicals (DPPH reduction activity, M.S. Blois method); type: biochemical; details: 0.1 mM DPPH solution in ethanol, absorbance at 517 nm after 20 minutes; read-out: 50% radical eliminating concentration
Protocol: Test example 1 (Antioxidant action examined by using stable radicals)
Reduction activity of α,-α-diphenyl-β-picrylhydrazyl (DPPH) which was a stable free radical was examined according to the M.S. Blois method (Nature, vol. 181, page. 1199, 1958) and used as an index to antioxidant action. Thus, specimens were added to 3 mℓ of a 0.1 mM DPPH solution in ethanol, and absorbance at a wavelength of 517 nm was measured using a spectrophotometer after 20 minutes. The difference in absorbance from the solvent control [0.5% or less of dimethylformamide (DMF)] was taken as the reduction activity.

[2] = tested on: superoxide anion radicals; experiment: Effects on formazan formation in the xanthine-xanthine oxidase-Nitrotetrazolium Blue system; type: biochemical; details: for Inhibition ratio (%) of formazan formation: phosphate buffer pH 7.8, 30°C, 10 minutes; for formazan formation (result in words): summary of Table-3
Protocol: Specimens were added to a 0.05 M phosphate buffer solution (pH 7.8) containing xanthine, EDTA 2Na and Nitrotetrazolium Blue (NTB) so as to provide the respective final concentrations of 5x10⁻⁵ M, 1x10⁻⁴ M and 5x10⁻⁴ M and warmed at 30°C for 3 minutes. Xanthine oxidase (manufactured by Sigma Corp.) was added, and the resulting specimens were warmed at 30°C for 10 minutes to colorimetrically determine formazan formed by superoxide anion radicals. The inhibition ratio of formazan formation was determined from the results at concentrations of 0.5 mM and 4 mM of each specimen.

CC1(C)OCC(C2OC(=O)C(O)=C2OCc2ccccn2)O1 [compound 007, L-5,6-O-isopropylidene-3-O-2′-pyridylmethylascorbic acid]
IC50 [1]: 23 µM

L-5,6-O-isopropylidene-3-O-(3-butanone) ascorbic acid [compound 022]
Inhibition ratio (%) of formazan formation ([2]; Concentration 0.5 mM): 22.6% | Inhibition ratio (%) of formazan formation ([2]; Concentration 4 mM): 26.7% | formazan formation (result in words) [2]: remarkably inhibited formazan formation | IC50 [1]: 20 µM

L-5,6-O-isopropylidene-3-O-methylcarbomethylascorbic acid [compound 021]
Inhibition ratio (%) of formazan formation ([2]; Concentration 0.5 mM): 9.2% | Inhibition ratio (%) of formazan formation ([2]; Concentration 4 mM): 47.4% | formazan formation (result in words) [2]: remarkably inhibited formazan formation | IC50 [1]: 17 µM
